Literature values, collected in US20100242127A1, “METHODS TO IDENTIFY MODULATORS OF B-RAF PROTEIN KINASE AND THEIR USE FOR THE TREATMENT OF ANXIETY AND DEPRESSION” (HELMHOLTZ ZENTRUM MUNCHEN, priority 2007, published 2010).

Test system: Mek
Conditions: mouse brain

Substance: PD184161
- behavioural phenotype after acute blockade of Mek: depressive-like phenotype
- effect on behavioural actions of antidepressants (acute): counteract the behavioural actions of antidepressants
